The source of these data is patent publication US7696238B2, “Substituted benzo[d]isoxazol-3-yl amine compounds as analgesics” (Gruenenthal GmbH, priority 2005, dated 2010).

Assay [1] addresses T1, KCNQ2/3 ion channel (KCNQ2/3-expressing CHO-K1 cells) (Homo sapiens, UniProt O43525+O43526).
T1 construct: expressed in transfected cells; host or cells: CHO-K1
The assay is described as follows: Fluorescence assay (FLIPR instrument, membrane potential dye) for substances acting agonistically on the KCNQ2/3 ion channel. The format is cell-based. The following applies: difference between maximum and minimum values, agonistic action detected from a value of −40 (and below). How it is done:
Pharmacological Test Methods I. Fluorescence Assay (FLIPR™ Instrument) for the Identification of Substances Acting Agonistically on the KCNQ2/3 Ion Channel
On the day before the experiment, KCNQ2/3-expressing CHO-K1 cells and CHO-K1 empty strain cells were seeded out onto coated poly-D-lysine black/clear plates (Falcon/BD Company; Order No.: 356640) in a concentration of 20000 cells/100 μl MEM alpha, 50 ml FCS, 5.5 ml PIS/G/solution (100×) and then incubated for 20-24 hours in an incubator (37° C., 5% CO2). On the day of the experiment the HBSS/hepes working solution and the FMP/HBSS/hepes mixture (Membrane Potential Assay Kit Red (FMP), bulk format Cat. No. R8123) were initially prepared according to the following protocol:
• 1000 ml 1× HBSS buffer (Hank's Balanced Salt Solution (1×) (Gibco; No. 14025)+10 ml hepes (1M stock solution, pH 7.4; hepes Na salt (Sigma Company; No. H7006-500 g; storage at 4° C. in a refrigerator) 2. 1× FMP/HBSS/hepes working solution: • 6 ml HBSS/hepes buffer are added to 5 ml of the FMP solution stored at −20° C. (preparation see below; thawing out at room temperature). The test substances (2 mM batch solution in 100% DMSO) contained in drug plates (Costar 96-well plates, catalogue No. 3795) were then diluted by adding HBSS/hepes buffer to a concentration of 30 μM (3× concentrated). The assay plates on which the cells grow were washed once with 200 μl HBSS/hepes (Cellwash Washer, Labsystems Company, catalogue No. 5161550) and the remaining volume was removed by tapping out the inverted plate twice. 100 μl of the FMP/HBSS/hepes working solution were then added in each case to the cell plates and incubated for 1 hour in the CO2 incubator at 37° C. and 5% CO2. The measurements are then carried out with a FLIPR III instrument from the Molecular Devices company (96-format, using the 540-590 nm band-pass filter in the #2 localization). In the experimental setup of the FLIPR software, filter #2 should be selected. The cell plates and the substance plates were fed alternately into the input stack. A signal test was carried out in each case with the cell plates before adding the substance. The test substances were then added via the pipetting unit of the FLIPR (added volume 50 μl, 3× concentrated, end concentration 10 μM) to the cavities of the cell plates in a total volume of 150 μl/well. The threshold data of the FLIPR program were as follows:
The pipette tips were washed after each pipetting procedure 3 times with 1% DMSO in water. The times of the measurement intervals after addition of the test substances are as follows:
Total measurement time: 6 min/plate
The test samples were evaluated by calculating the difference between the maximum and minimum values. EC50/IC50 values are calculated using the Graph Pad Prism software.
Preparation of the membrane potential loading buffer (membrane potential assay kit red (FMP), bulk format cat. No. R8123) according to the manufacturer's instructions:
10 ml of the 10× assay buffer (component B) were diluted with 90 ml of sterile water and then adjusted to pH 7.4 with 1.0N NaOH (1× assay buffer). One vessel with the FLIPR membrane potential assay component A was completely dissolved in 100 ml 1× assay buffer and thoroughly mixed for 10 minutes with a magnetic stirrer. 5 ml aliquots were then stored at −20° C. (storage shelf life ca. 2 weeks).
An agonistic action can be detected starting from a value of −40 (and below).

The target of assay [2] is T2, hKCNQ2/3 (stably transfected hKCNQ2/3 CHO-K1 cell line) (Homo sapiens, UniProt O43525+O43526).
T2 construct: expressed in transfected cells; host or cells: CHO-K1
In words: Voltage clamp (patch-clamp) measurements, current increase relative to retigabin. The assay is classed as cell-based. Particulars: test substance 10 μM at −40 mV; current increase standardized to retigabin (10 μM) effect. How it is done: II. Voltage Clamp Measurements
In order to confirm electrophysiologically a KCNQ2/3 agonistic action of the substances, patch-clamp measurements [see Hamill O P, Marty A, Neher E, Sakmann B, Sigworth F J: “Improved patch-clamp techniques for high-resolution current recording from cells and cell-free membrane patches”, Pflugers Arch. 1981 August; 391(2):85-100] were carried out in the voltage clamp mode on a stably transfected hKCNQ2/3 CHO-K1 cell line. After formation of the gigaseal the cells were first of all clamped at a holding potential of −60 mV. Depolarising voltage jumps were then applied up to a potential of +20 mV (increment: 20 mV, duration: 1 second), in order to confirm the functional expression of KCNQ2/3 typical currents. The substances were tested at a potential of −40 mV. The current increase induced by retigabin (10 μM) was first of all recorded on each cell at −40 mV as positive control. After completely washing out the retigabin effect (duration: 80 sec) the test substance (10 μM) was applied. The current increase induced by the test substance was standardized to the retigabin effect and stated as relative efficacy (see below).
On the technique in general: Patch clamp records ionic current or voltage across a cell membrane.

For the compound `CCCCc1ccc(CNc2noc3cc(F)ccc23)cc1` [Example 171, (4-butylbenzyl)-(6-fluorobenzo[d]isoxazol-3-yl)-amine], the “FLIPR membrane potential fluorescence change (ΔF %, max minus min); negative values indicate KCNQ2/3 agonism” value in assay [1] is listed as −53%. Besides, the “Voltage clamp: relative efficacy with respect to retigabin [10 μM]” value (shortened to “Voltage clamp: relative efficacy”) in assay [2] came out at 0.68.

On to `CCCCc1ccc(CNc2noc3cc(Cl)ccc23)cc1` [Example 161, (4-butylbenzyl)-(6-chloro-benzo[d]isoxazol-3-yl)-amine], for which, in assay [1], the “FLIPR membrane potential fluorescence change (ΔF %, max minus min); negative values indicate KCNQ2/3 agonism” value was −40%. Besides, the “Voltage clamp: relative efficacy” value in assay [2] is 0.61.

Take `Fc1ccc2c(NCc3cccc(OCc4ccccc4)c3)noc2c1` [Example 173, (3-benzyloxybenzyl)-(6-fluorobenzo[d]isoxazol-3-yl)-amine]: the “FLIPR membrane potential fluorescence change (ΔF %, max minus min); negative values indicate KCNQ2/3 agonism” value in assay [1] is on record as −55%. Also, the “Voltage clamp: relative efficacy” value in assay [2] is 0.84.

With `Cc1cc(C)cc(CNc2noc3c(F)cccc23)c1` [Example 167, (3,5-dimethylbenzyl)-(7-fluorobenzo[d]isoxazol-3-yl)-amine], the “FLIPR membrane potential fluorescence change (ΔF %, max minus min); negative values indicate KCNQ2/3 agonism” value in assay [1] was −61%. Moreover, the “Voltage clamp: relative efficacy” value in assay [2] came to 0.25.
